# Patent US4663309A, “Novel peptide hormones with calcitonin-like activity” (University Patents, Inc., priority 1985, dated 1987)
# Bridge positions count the residues as written; N and C are the ends. Peptide text beside a SMILES is read from it.
# Tests used:
# [1] = Circular dichroism spectra, alpha-helical structure in solution; format: physicochemical
# Text: The circular dichroism (CD) spectra of MCT-I and salmon calcitonin (designated "SCT-I", available from Armour Pharmaceuticals, Kankakee, IL and used without further purification) from 250 nm to 205 nm show minima at 222 nm and 208 nm characteristic of α-helical structure. For MCT-I, the mean residue molar ellipticity at 222 nm, [θ]222, was -7,800 deg.cm^2 /dmol (10^-4 M peptide, 0.02M sodium phosphate buffer, 0.16M KCl, pH 7.4), from which the α-helicity was estimated to be 30% (assuming no contribution to CD by β-sheet structure) according to the method of Morrisett, J. D., J. S. K. Davis, H. J. Pownall, and A. M. Gotto, Biochemistry 12:1290 (1973). […] Similarly, the value of [θ]222 for solutions of SCT-I over the same concentration range and under the same conditions also remains constant at -4,600 deg.cm^2 /dmol, leading to an estimate of 20% α-helix for this peptide. In 50% trifluoroethanol, a structure promoting solvent, both MCT-I and SCT-I were estimated to be 50% α-helical at a concentration of 5×10^-5 M, as was found by Brewer, H. D. and H. Edelhoch, J. Biol. Chem. 245:2402 (1970) for porcine calcitonin (PCT) in 50% 2-chloroethanol.
# The circular dichroic spectra of MCT-II solutions buffered with 0.02M sodium phosphate at pH 7.4 and containing 0.16M KCl were measured from 250 nm to 200 nm using a Carey 60™ spectropolarimeter (Varian Instruments, Palo Alto. CA). The spectrometer cells used were washed with concentrated nitric acid, rinsed thoroughly with deionized water, then treated with a 1% aqueous polyethylene glycol (Mr 15K-20K) solution for 1 hr and finally rinsed with water before using. The molar ellipticities obtained from the circular dichroic spectra of MCT-II from 240 nm to 204 nm were fitted by a linear combination of three different basis functions derived from the spectra described by Greenfield, N. and G. D. Fasman, Biochem. 8:4108(1969) for α-helix, β-sheet, and random coil structure. […] Since there was no significant contribution to the spectrum from β-sheet structure, we used the mean residue molar ellipticity at 222 nm, [ θ]222, to estimate changes in α-helical structure (Morrisett et al., supra). The results are given in FIG. 3; each data point represents the mean from two experiments. […] [θ]222 for the monomer was -5,200 deg.cm^2 /dmol (20% α-helix) and -10,475 deg.cm^2 /dmol (35% α-helix) for the trimer. […] This dissociation constant corresponds to a 4.5 kcal/mol of stabilization energy per monomer for trimerization. Under similar conditions and over the same concentration range [θ]222 for MCT-I and SCT-I remained constant at -7,800 deg.cm^2 /dmol and -4,600 deg.cm^2 /dmol, respectively.
# [2] = Binding to single bilayer egg lecithin vesicles; format: physicochemical; conditions: for Adsorption to the surface of single bilayer egg lecithin vesicles: 1 to 100 μM peptide, SCT-I at pH 7.4 or pH 3.0; for N, upper limit of bound peptide per vesicle / Kd: 7×10^-4 M lecithin; for N, upper limit of bound peptide per vesicle: pH 7.4; for Kd: pH 7.4, 45 min at 21° C., read-out: K, dissociation constant for vesicle binding; for A∞·N product: A∞ from the monolayer studies in Example 7
# Experimental: Egg lecithin single bilayer vesicles (SBVs) were prepared by rapid injection of an ethanolic egg yolk lecithin (Avanti Polar-Lipids Inc., Birmingham, AL) solution into aqueous 0.16M KCl by the method of Batzri, S. and E. D. Korn, Biochim. Biophys. Acta 298:1015(1973) and purified by filtration through a 2.5 cm×87 cm column of Fractogel TSK HW-75(F)™ (Pierce Chemical Co., Rockford, IL). After purification, vesicles were characterized by gel filtration through a 1.5 cm×40 cm column of Sepharose CL-4B™ (Pharmacia Fine Chemicals) by the method of Batzri and Korn, supra. The concentration of vesicles in stock solutions were determined by the phosphate assay of Ames, B. N. and D. T. Dubin, J. Biol. Chem. 235:769(1960). In a typical binding experiment, varying concentrations of peptide were incubated for 45 min at 21° C. with vesicles (7×10^-4 M lecithin) in 0.02M sodium phosphate buffer, pH 7.4 containing 0.16M KCl in a total volume of 300 μl for 45 min. Free peptide was separated from vesicle-bound peptide by rapid filtration through a 1.4 cm×6.3 cm column of Sepharose CL-6B™ (Pharmacia Fine Chemicals) using the same buffer as above the eluent. The concentration of peptide in each fraction was determined using fluorescamine after first disrupting the vesicles with isopropanol (20% by volume).
# The data for MCT-I and MCT-II were analyzed according to the equation Pf =(N·V·Pf /Pb)-K (Adamson, A. W., Physical Chemistry of Surfaces, 3rd Ed. (Wiley Interscience, New York, 1976), p. 388), where Pf and Pb are the concentration of free and bound peptide respectively, V is the initial molarity of vesicles (3200 phospholipids per vesicle), N is the upper limit of Pf /V, and K is the dissociation constant. Plots of V·Pf /Pb versus Pf were linear and gave K=12.9±4.8 μM with N=50±5 for MCT-I and K=6.7±1.7 μM, N= 68±2 for MCT-II. The product, A.infin. ·N, where A.infin. was obtained from the monolayer studies in Example 7, are nearly the same (A.infin. ·N(MCT-I) =2.2±0.2×10^4 Å^2, A.infin. ·N(MCT-II) =2.5±0.1×10^4 Å^2), accounting for the difference in observed values of N. A.infin. ·N is also in reasonable agreement with estimates of the available surface area between the phospholipid head groups of 230 Å diameter vesicles (1.8±0.6×10^4 Å^2; Kupferberg, J. P., S. Yokoyama, and F. J. Kezdy, J. Biol. Chem. 256:6274(1981)).
Stabilization energy per monomer for trimerization [1],α-helix of the monomer ([1]; monomer),Dissociation constant (Kd) for the oligomer ([1]; monomer/trimer equilibrium),"[θ]222 for the monomer ([1]; monomer, 0.02M sodium phosphate pH 7.4, 0.16M KCl)",α-helix of the trimer ([1]; trimer),"[θ]222 for the trimer ([1]; trimer, 0.02M sodium phosphate pH 7.4, 0.16M KCl)",Adsorption to the surface of single bilayer egg lecithin vesicles [2],"N, upper limit of bound peptide per vesicle [2]",Kd [2],A∞·N product [2],"α-helicity estimated from [θ]222 ([1]; 0.02M sodium phosphate, 0.16M KCl, pH 7.4)","Mean residue molar ellipticity at 222 nm, [θ]222 ([1]; 0.02M sodium phosphate, 0.16M KCl, pH 7.4, constant from 10^-7 M to 10^-4 M)",α-helicity in 50% trifluoroethanol ([1]; 5×10^-5 M peptide),SMILES
18.8 kJ/mol,20%,5.06×10^-11 M^2,"-5,200 deg.cm^2 /dmol",35%,"-10,475 deg.cm^2 /dmol",adsorb to the surface,68±2,6.7 ± 1.7 µM,2.5±0.1×10^4 Å^2,–,–,–,CC(C)C[C@H](NC(=O)[C@H](CCCCN)NC(=O)[C@H](CCC(N)=O)NC(=O)[C@H](CC(C)C)NC(=O)[C@H](CCC(N)=O)NC(=O)[C@H](CCC(N)=O)NC(=O)[C@H](CC(C)C)NC(=O)[C@H](CC(C)C)NC(=O)[C@@H]1CSSC[C@H](N)C(=O)N[C@@H](CO)C(=O)N[C@@H](CC(N)=O)C(=O)N[C@@H](CC(C)C)C(=O)N[C@@H](CO)C(=O)N[C@@H]([C@@H](C)O)C(=O)N1)C(=O)N[C@@H](CC(C)C)C(=O)N[C@@H](CCC(N)=O)C(=O)N[C@@H](CCCCN)C(=O)N[C@@H](CC(C)C)C(=O)N[C@@H](CCCCN)C(=O)N[C@@H](CCC(N)=O)C(=O)N[C@@H](Cc1ccc(O)cc1)C(=O)N1CCC[C@H]1C(=O)N[C@@H](CCCNC(=N)N)C(=O)N[C@H](C(=O)N[C@@H](CC(N)=O)C(=O)N[C@H](C(=O)NCC(=O)N[C@@H](CO)C(=O)NCC(=O)N[C@H](C(=O)N1CCC[C@H]1C(N)=O)[C@@H](C)O)[C@@H](C)O)[C@@H](C)O [MCT-II] (H-CSNLSTCLLQQLQKLLQKLKQYPRTNTGSGTP-NH2; disulfide 1-7; N-terminus assumed)
–,–,–,–,–,–,adsorb to the surface,50±5,12.9 ± 4.8 µM,2.2±0.2×10^4 Å^2,30%,"-7,800 deg.cm^2 /dmol",50%,CC(C)C[C@@H]1NC(=O)[C@H](CC(N)=O)NC(=O)CNC(=O)[C@@H](N)CSSC[C@@H](C(=O)N[C@@H](CC(C)C)C(=O)N[C@@H](CC(C)C)C(=O)N[C@@H](CCC(N)=O)C(=O)N[C@@H](CCC(N)=O)C(=O)N[C@@H](Cc2c[nH]c3ccccc23)C(=O)N[C@@H](CCC(N)=O)C(=O)N[C@@H](CCCCN)C(=O)N[C@@H](CC(C)C)C(=O)N[C@@H](CC(C)C)C(=O)N[C@@H](CCC(N)=O)C(=O)N[C@@H](CCCCN)C(=O)N[C@@H](CC(C)C)C(=O)N[C@@H](CCCCN)C(=O)N[C@@H](CCC(N)=O)C(=O)N[C@@H](CC(C)C)C(=O)N2CCC[C@H]2C(=O)N[C@@H](CCCNC(=N)N)C(=O)N[C@H](C(=O)N[C@@H](CC(N)=O)C(=O)N[C@H](C(=O)NCC(=O)N[C@@H](CO)C(=O)NCC(=O)N[C@H](C(=O)N2CCC[C@H]2C(N)=O)[C@@H](C)O)[C@@H](C)O)[C@@H](C)O)NC(=O)[C@H]([C@@H](C)O)NC(=O)[C@H](CO)NC1=O [MCT-I] (H-CGNLSTCLLQQWQKLLQKLKQLPRTNTGSGTP-NH2; disulfide 1-7)
